In ChEMBL document CHEMBL5528044, “Exploring the Function of (+)-Naltrexone Precursors: Their Activity as TLR4 Antagonists and Potential in Treating Morphine Addiction” (J Med Chem, 2024):
Active and inactive are the calls of the source. The rule behind the calls is not given here.

Key:
[1] = target: T1, Toll-like receptor 4 (Mus musculus, UniProt Q9QUK6); experiment: Antagonist activity at TLR4 in mouse BV-2 cells assessed as inhibition of LPS-induced NO overproduction incubated for 24 hrs by 2,3-diaminonaphthalene reagent based microplate reader analysis; assay type: cell-based
T1 sequence (Q9QUK6 whole entry): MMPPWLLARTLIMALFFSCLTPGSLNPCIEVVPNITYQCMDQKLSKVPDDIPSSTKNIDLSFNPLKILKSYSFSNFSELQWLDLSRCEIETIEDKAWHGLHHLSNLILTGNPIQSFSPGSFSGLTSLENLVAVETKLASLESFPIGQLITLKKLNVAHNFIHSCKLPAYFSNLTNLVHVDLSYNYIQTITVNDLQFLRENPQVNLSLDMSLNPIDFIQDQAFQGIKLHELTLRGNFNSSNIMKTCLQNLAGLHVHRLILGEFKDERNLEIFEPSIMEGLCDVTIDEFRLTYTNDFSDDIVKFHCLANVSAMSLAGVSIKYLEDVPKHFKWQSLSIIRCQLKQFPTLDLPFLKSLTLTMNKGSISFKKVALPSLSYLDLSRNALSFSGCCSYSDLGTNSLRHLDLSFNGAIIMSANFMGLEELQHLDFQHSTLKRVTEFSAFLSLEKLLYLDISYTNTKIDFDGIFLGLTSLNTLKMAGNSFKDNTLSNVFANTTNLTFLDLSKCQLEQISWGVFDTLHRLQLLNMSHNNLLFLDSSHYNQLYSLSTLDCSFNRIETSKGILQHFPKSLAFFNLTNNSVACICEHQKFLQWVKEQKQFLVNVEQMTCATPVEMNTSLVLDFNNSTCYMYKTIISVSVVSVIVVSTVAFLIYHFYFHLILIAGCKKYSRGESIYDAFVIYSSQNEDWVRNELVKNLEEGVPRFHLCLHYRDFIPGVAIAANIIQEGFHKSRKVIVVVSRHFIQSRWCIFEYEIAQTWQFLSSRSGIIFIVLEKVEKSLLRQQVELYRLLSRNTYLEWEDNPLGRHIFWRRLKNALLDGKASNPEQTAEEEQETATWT

[2] = target: T2, Toll-like receptor 4 (Mus musculus) (UniProt Q9QUK6); experiment: Antagonist activity at TLR4 in mouse BV-2 cells assessed as inhibition of LPS-induced NF-kappaB activation at 4 uM incubated for 24 hrs by dual-glo luciferase assay; assay type: cell-based
T2 sequence (whole entry): T1 sequence (Q9QUK6 whole entry)

[3] = target: T2, Toll-like receptor 4 (Mus musculus); experiment: Antagonist activity at TLR4 signaling pathway in mouse BV-2 cells assessed as downregulation of LPS-induced IRF-3 phosphorylation at 5 uM incubated for 1 hr by Western blot analysis; assay type: cell-based
[4] = target: T2, Toll-like receptor 4 (Mus musculus); experiment: Antagonist activity at TLR4 signaling pathway in mouse BV-2 cells assessed as downregulation of LPS-induced ERK phosphorylation at 5 uM incubated for 1 hr by Western blot analysis; assay type: cell-based
[5] = target: T2, Toll-like receptor 4 (Mus musculus); experiment: Antagonist activity at TLR4 signaling pathway in mouse BV-2 cells assessed as inhibition of LPS-induced TRIF recruitment at 5 uM incubated for 1 hr by co-immunoprecipitation based Western blot analysis; assay type: cell-based
[6] = target: T2, Toll-like receptor 4 (Mus musculus); experiment: Antagonist activity at TLR4 signaling pathway in mouse BV-2 cells assessed as inhibition of LPS-induced MyD88 recruitment at 5 uM incubated for 1 hr by co-immunoprecipitation based Western blot analysis; assay type: cell-based
[7] = target: T2, Toll-like receptor 4 (Mus musculus); experiment: Antagonist activity at TLR4 signaling pathway in mouse BV-2 cells assessed as downregulation of LPS-induced JNK phosphorylation at 5 uM incubated for 1 hr by Western blot analysis; assay type: cell-based
[8] = target: T2, Toll-like receptor 4 (Mus musculus); experiment: Antagonist activity at TLR4 in mouse BV-2 cells assessed as inhibition of LPS-induced TNF-alpha production at 0.01 to 100 uM by ELISA; assay type: cell-based; settings: dose 0.01-100 µM
[9] = target: T2, Toll-like receptor 4 (Mus musculus); experiment: Antagonist activity at TLR4 signaling pathway in mouse BV-2 cells assessed as downregulation of LPS-induced IKKalpha phosphorylation at 5 uM incubated for 1 hr by Western blot analysis; assay type: cell-based
[10] = target: T2, Toll-like receptor 4 (Mus musculus); experiment: Antagonist activity at TLR4 signaling pathway in mouse BV-2 cells assessed as downregulation of LPS-induced IKKbeta phosphorylation at 5 uM incubated for 1 hr by Western blot analysis; assay type: cell-based
[11] = system: Mus musculus; experiment: Inhibition of chronic morphine-induced microglia activation in Balb/c mouse assessed as reduction in microglia cell number in brain ventral tegmental area region at 0.2 mg/kg,ip administrated for 6 consecutive days by immunofluorescence staining based analysis; assay type: functional, organism-based
[12] = system: Mus musculus; experiment: Inhibition of morphine-induced addiction behavior in Balb/c mouse assessed reduction in CPP score at 0.2 mg/kg,ip administrated for 6 consecutive days by conditioned place preference assay; assay type: functional, organism-based
[13] = system: Mus musculus; experiment: Inhibition of chronic morphine-induced microglia activation in Balb/c mouse assessed as reduction in Iba1 expression in brain ventral tegmental area region at 0.2 mg/kg,ip administrated for 6 consecutive days by immunofluorescence staining based analysis; assay type: functional, organism-based
[14] = system: Mus musculus; experiment: Inhibition of chronic morphine-induced microglia activation in Balb/c mouse assessed as reduction in Iba1 expression in nucleus accumbens region at 0.2 mg/kg,ip administrated for 6 consecutive days by immunofluorescence staining based analysis; assay type: functional, organism-based
[15] = system: Mus musculus; experiment: Inhibition of chronic morphine-induced microglia activation in Balb/c mouse assessed as reduction in microglia cell number in brain medial prefrontal cortex region at 0.2 mg/kg,ip administrated for 6 consecutive days by immunofluorescence staining based analysis; assay type: functional, organism-based
[16] = system: Mus musculus; experiment: Inhibition of chronic morphine-induced microglia activation in Balb/c mouse assessed as reduction in Iba1 expression in brain medial prefrontal cortex region at 0.2 mg/kg,ip administrated for 6 consecutive days by immunofluorescence staining based analysis; assay type: functional, organism-based
[17] = system: Mus musculus; experiment: Inhibition of chronic morphine-induced microglia activation in Balb/c mouse assessed as reduction in TNF-alpha mRNA expression in brain medial prefrontal cortex region at 0.2 mg/kg,ip administrated for 6 consecutive days by qPCR analysis; assay type: functional, organism-based
[18] = system: Mus musculus; experiment: Inhibition of chronic morphine-induced microglia activation in Balb/c mouse assessed as reduction in TNF-alpha mRNA expression in brain nucleus accumbens region at 0.2 mg/kg,ip administrated for 6 consecutive days by qPCR analysis; assay type: functional, organism-based
[19] = system: Mus musculus; experiment: Inhibition of morphine-induced addiction behavior in Balb/c mouse assessed as decrease in locomotor activity at 0.2 mg/kg,ip administrated on day 4 to 10 by open-field test; assay type: functional, organism-based; settings: time 7.0 day
[20] = system: Mus musculus; experiment: Inhibition of chronic morphine-induced microglia activation in Balb/c mouse assessed as reduction in TNF-alpha mRNA expression in brain ventral tegmental area region at 0.2 mg/kg,ip administrated for 6 consecutive days by qPCR analysis; assay type: functional, organism-based
[21] = system: Mus musculus; experiment: Inhibition of chronic morphine-induced microglia activation in Balb/c mouse assessed as reduction in microglia cell number in brain nucleus accumbens region at 0.2 mg/kg,ip administrated for 6 consecutive days by immunofluorescence staining based analysis; assay type: functional, organism-based

SMILES: COc1ccc2c3c1O[C@@H]1C(=O)CC[C@@H]4[C@H](C2)N(C)CC[C@@]314
- IC50 [1]: > 200 µM

SMILES: COc1ccc2c3c1O[C@@H]1C(OC)(OC)C(Br)C[C@@H]4[C@H](C2)N(C)CC[C@]341 (some centres not stated)
- IC50 [1]: > 200 µM

SMILES: COc1ccc2c3c1O[C@@H]1C(=O)CC[C@]4(OC(C)=O)[C@H](C2)N(C)CC[C@@]314
- IC50 [1]: > 200 µM

SMILES: COc1ccc2c3c1O[C@@H]1C(OC)(OC)CC[C@@H]4[C@H](C2)N(C)CC[C@]341
- IC50 [1]: > 200 µM

SMILES: COc1ccc2c3c1O[C@@H]1C(=O)C=C[C@@H]4[C@H](C2)N(C)CC[C@@]314
- IC50 [1]: 6.9 µM

SMILES: CN1CC[C@@]23c4c5ccc(O)c4O[C@@H]2C(=O)CC[C@]3(O)[C@@H]1C5
- Activity [2]: inactive
- Activity [3]: inactive
- Activity [4]: inactive
- Activity [5]: inactive
- Activity [6]: inactive
- Activity [7]: inactive
- Activity [8]: inactive
- IC50 [1]: 33.5 µM
- Activity [9]: inactive
- Activity [10]: inactive

SMILES: COC1=CC=C2[C@@H]3Cc4ccc(OC)c5c4[C@]2(CCN3C)[C@@H]1O5
- IC50 [1]: 197 µM

SMILES: COc1ccc2c(c1O)[C@@]13CCN(C)[C@@H](C2)[C@H]1CC(OC)C(=O)C3 (some centres not stated)
- IC50 [1]: > 200 µM

SMILES: COc1ccc2c3c1O[C@@H]1C(=O)CC[C@]4(OC(C)=O)[C@H](C2)N(C#N)CC[C@@]314
- IC50 [1]: 67.8 µM

SMILES: COC1=CC[C@@H]2[C@@H]3Cc4ccc(OC)c5c4[C@]2(CCN3C)[C@@H]1O5
- IC50 [1]: > 200 µM

SMILES: COc1ccc2c3c1O[C@@H]1C(=O)CC[C@]4(O)[C@H](C2)NCC[C@@]314
- IC50 [1]: > 200 µM

SMILES: O=C1CC[C@]2(O)[C@@H]3Cc4ccc(O)c5c4[C@]2(CCN3CC2CC2)[C@@H]1O5
- inhibition [11]: inactive
- inhibition [12]: inactive
- inhibition [13]: inactive
- inhibition [14]: inactive
- inhibition [15]: inactive
- inhibition [16]: inactive
- inhibition [17]: inactive
- inhibition [18]: inactive
- inhibition [19]: Active
- inhibition [20]: inactive
- inhibition [21]: inactive

SMILES: COc1ccc2c3c1O[C@@H]1C(=O)CC[C@]4(O)[C@H](C2)N(C)CC[C@@]314 (single isomer, unassigned)
- Activity [2]: inactive
- Activity [3]: inactive
- Activity [4]: inactive
- Activity [5]: inactive
- Activity [6]: inactive
- Activity [7]: inactive
- Activity [8]: inactive
- IC50 [1]: > 200 µM
- Activity [9]: inactive
- Activity [10]: inactive

SMILES: COC1=C[C@@H]2[C@@H]3Cc4ccc(OC)c(O)c4[C@]2(CCN3C)CC1=O [SINOMENINE]
- IC50 [1]: > 200 µM
